In patent publication USRE48461E1, “Modulation of androgen receptor expression” (Ionis Pharmaceuticals, Inc., priority 2012, dated 2021):

Assays:
Assay type in all cases: cell-based, human
AR V7 variant mRNA = assay: AR V7 variant RNA in 22RV1 cells; details: 48 hrs
AR mRNA [1] = assay: AR RNA expression in LNCaP cells (complete, CSS, CSS+DHT medium); details: for Percent expression of AR in LNCaP cells cultured in CSS + DHT medium: CSS + DHT (1 nM) medium; for Percent expression of AR in LNCaP cells cultured in CSS + DHT medium / Percent expression of AR in LNCaP cells cultured in CSS medium: 48 hrs; for Percent expression of AR in LNCaP cells cultured in complete medium: 48 hours
Experimental: Cells were plated at 1,000 cells per well. […] After an incubation period of 48 hours, RNA levels of AR, PSA and TMPRSS2 were measured.
Cells were plated at 2,000 cells per well and cultured in phenol red-free RPMI supplemented with 5% charcoal stripped serum (Gibco) media for 16 hours. […] After an incubation period of 4 hrs, DHT was added to the medium to a final concentration of 1 nM as indicated. RNAs were collected 48 hrs later and levels of AR, PSA and TMPRSS2 were measured.

AR mRNA [2] = assay: AR RNA expression in C4-2B cells (complete, CSS+DHT medium; Example 30); details: 48 hrs
Experimental: Cells were plated at 1,000 cells per well. […] ISIS 549148 was included as a negative control. […] After an incubation period of 48 hrs, RNA levels of AR, PSA and TMPRSS2 were measured.
Cells were plated at 2,000 cells per well and cultured in CSS media with 1 nM DHT. […] ISIS 549148 was included as a negative control. […] After an incubation period of 48 hrs, RNA levels of AR, PSA and TMPRSS2 were measured. In the absence of DHT, AR expression in C4-2 cells was 188%, PSA expression was 43% and TMPRSS2 expression was 27% compared to the untreated control.

PSA mRNA = assay: PSA expression in C4-2 cells; details: 48 hrs; for Percent inhibition of PSA expression: C4-2 cells, CSS + DHT medium
Experimental: Cells were plated at 1,000 cells per well. […] After an incubation period of 48 hrs, RNA levels of AR, PSA and TMPRSS2 were measured.
Cells were plated at 2,000 cells per well and cultured in CSS media with 1 nM DHT. […] After an incubation period of 48 hrs, RNA levels of AR, PSA and TMPRSS2 were measured.

TMPRSS2 mRNA = assay: Time-course TMPRSS2 expression in C4-2B cells
Experimental: C4-2B cells were plated at 1,000 cells per well in complete medium. […] ISIS 549148 was included as a negative control. […] After a treatment period of 8 hours, 24 hours, and 48 hours, AR expression was measured with primer probe set hAR-LTS00943. Results are presented in Tables 70-72 as percent expression of AR, relative to non-treated cells.
Expression analysis of prostate-specific antigen (PSA) and TMPRSS2 were also analyzed. Results are presented in Tables 73-75 as percent inhibition of PSA expression and Tables 76-78 as percent inhibition of TMPRSS2 expression, relative to non-treated cells.

AR mRNA [3] = assay: Time-course AR mRNA expression in C4-2B cells (8, 24, 48 hours); details: for Percent expression of AR compared to the control group in 8 hours / Percent expression of AR compared to the control group in 24 hours / Percent expression of AR compared to the control group in 48 hours: C4-2B cells
Experimental: C4-2B cells were plated at 1,000 cells per well in complete medium. […] After a treatment period of 8 hours, 24 hours, and 48 hours, AR expression was measured with primer probe set hAR-LTS00943.

## CNC(=O)c1ccc(N2C(=S)N(c3ccc(C#N)c(C(F)(F)F)c3)C(=O)C2(C)C)cc1F [MDV3100, 4-(3-(4-cyano-3-(trifluoromethyl)phenyl)-5,5-dimethyl-4-oxo-2-thioxoimidazolidin-1-yl)-2-fluoro-N-methylbenzamide, reference compound]
AR V7 variant mRNA; CSS + DHT medium, 0.04 μM
  Percent of gene expression, AR V7 variant: 16%
AR V7 variant mRNA; CSS + DHT medium, 0.2 μM
  Percent of gene expression, AR V7 variant: 17%
AR V7 variant mRNA; CSS + DHT medium, 1.0 μM
  Percent of gene expression, AR V7 variant: 19%
AR V7 variant mRNA; CSS + DHT medium, 5.0 μM
  Percent of gene expression, AR V7 variant: 12%
AR V7 variant mRNA; complete medium, 0.04 μM
  Percent of gene expression, AR V7 variant: 106%
AR V7 variant mRNA; complete medium, 0.2 μM
  Percent of gene expression, AR V7 variant: 98%
AR V7 variant mRNA; complete medium, 1.0 μM
  Percent of gene expression, AR V7 variant: 87%
AR V7 variant mRNA; complete medium, 5.0 μM
  Percent of gene expression, AR V7 variant: 77%
AR mRNA [1]; 0.04 μM
  Percent expression of AR in LNCaP cells cultured in CSS + DHT medium: 107%
  Percent expression of AR in LNCaP cells cultured in CSS medium: 91%
AR mRNA [1]; 0.2 μM
  Percent expression of AR in LNCaP cells cultured in CSS + DHT medium: 121%
  Percent expression of AR in LNCaP cells cultured in CSS medium: 67%
  Percent expression of AR in LNCaP cells cultured in complete medium: 133%
AR mRNA [1]; 1 μM
  Percent expression of AR in LNCaP cells cultured in CSS + DHT medium: 110%
  Percent expression of AR in LNCaP cells cultured in CSS medium: 64%
  Percent expression of AR in LNCaP cells cultured in complete medium: 121%
AR mRNA [1]; 5.0 μM
  Percent expression of AR in LNCaP cells cultured in CSS + DHT medium: 113%
  Percent expression of AR in LNCaP cells cultured in CSS medium: 77%
  Percent expression of AR in LNCaP cells cultured in complete medium: 139%
AR mRNA [2]; CSS + DHT medium, 0.04 μM
  Percent expression of AR: 112%
AR mRNA [2]; CSS + DHT medium, 0.2 μM
  Percent expression of AR: 144%
AR mRNA [2]; CSS + DHT medium, 1 μM
  Percent expression of AR: 165%
AR mRNA [2]; CSS + DHT medium, 5.0 μM
  Percent expression of AR: 173%
AR mRNA [2]; CSS+DHT medium
  AR expression: increased AR expression in the cells
AR mRNA [2]; complete medium, 0.04 μM
  Percent expression of AR: 108%
AR mRNA [2]; complete medium, 0.2 μM
  Percent expression of AR: 121%
AR mRNA [2]; complete medium, 1 μM
  Percent expression of AR: 157%
AR mRNA [2]; complete medium, 5.0 μM
  Percent expression of AR: 182%
AR mRNA [2]; complete medium
  AR expression: increased AR expression in the cells
PSA mRNA; 0.04 μM
  Percent inhibition of PSA expression: 9%
  Percent inhibition of PSA expression in C4-2 cells cultured in complete medium: 28%
PSA mRNA; 0.2 μM
  Percent inhibition of PSA expression: 8%
  Percent inhibition of PSA expression in C4-2 cells cultured in complete medium: 40%
PSA mRNA; 1 μM
  Percent inhibition of PSA expression: 51%
  Percent inhibition of PSA expression in C4-2 cells cultured in complete medium: 72%
PSA mRNA; 5.0 μM
  Percent inhibition of PSA expression: 73%
  Percent inhibition of PSA expression in C4-2 cells cultured in complete medium: 89%
TMPRSS2 mRNA; 0.04 μM
  Percent inhibition of TMPRSS2 expression compared to the control group in 8 hours: 0%
  Percent inhibition of TMPRSS2 expression compared to the control group in 24 hours: 23%
  Percent inhibition of TMPRSS2 expression compared to the control group in 48 hours: 5%
TMPRSS2 mRNA; 0.2 μM
  Percent inhibition of TMPRSS2 expression compared to the control group in 8 hours: 6%
  Percent inhibition of TMPRSS2 expression compared to the control group in 24 hours: 31%
  Percent inhibition of TMPRSS2 expression compared to the control group in 48 hours: 16%
TMPRSS2 mRNA; 1 μM
  Percent inhibition of TMPRSS2 expression compared to the control group in 8 hours: 45%
  Percent inhibition of TMPRSS2 expression compared to the control group in 24 hours: 63%
  Percent inhibition of TMPRSS2 expression compared to the control group in 48 hours: 46%
TMPRSS2 mRNA; 5.0 μM
  Percent inhibition of TMPRSS2 expression compared to the control group in 8 hours: 52%
  Percent inhibition of TMPRSS2 expression compared to the control group in 24 hours: 72%
  Percent inhibition of TMPRSS2 expression compared to the control group in 48 hours: 59%
TMPRSS2 mRNA; time course
  TMPRSS2 expression: also reduced downstream gene expressions but not as potently as that with the ISIS oligonucleotides
AR mRNA [3]; 0.04 μM
  Percent expression of AR compared to the control group in 8 hours: 99%
  Percent expression of AR compared to the control group in 24 hours: 88%
  Percent expression of AR compared to the control group in 48 hours: 94%
AR mRNA [3]; 0.2 μM
  Percent expression of AR compared to the control group in 8 hours: 100%
  Percent expression of AR compared to the control group in 24 hours: 99%
  Percent expression of AR compared to the control group in 48 hours: 94%
AR mRNA [3]; 1 μM
  Percent expression of AR compared to the control group in 8 hours: 92%
  Percent expression of AR compared to the control group in 24 hours: 96%
  Percent expression of AR compared to the control group in 48 hours: 113%
AR mRNA [3]; 5.0 μM
  Percent expression of AR compared to the control group in 24 hours: 84%
  Percent expression of AR compared to the control group in 48 hours: 126%
AR mRNA [3]; C4-2B cells, 8, 24 and 48 hours
  AR expression: increased AR expression at the 48 hour time-point
